The text below walks through data of EP4603105A1, “PHARMACEUTICAL COMPOSITION CONTAINING CYCLIC COMPOUND HAVING SELECTIVE KRAS INHIBITORY EFFECT AGAINST HRAS AND NRAS” (CHUGAI SEIYAKU KABUSHIKI KAISHA, priority 2022, dated 2024).

The target of assay [1] is GDP-bound KRAS wild-type protein (Homo sapiens, UniProt P01116). Kind of assay: Binding to KRAS by surface plasmon resonance (SPR), dissociation constant KD. The conditions noted are these: Single Cycle Kinetics, 1:1 binding model. In a few lines:
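GDP-loaded biotinylated Avi-tag RAS proteins (E. coli-expressed) captured on a Biotin CAPture chip at ~100–300 RU; single-cycle kinetics at 30°C, 100 µL/min, 75 s injections of rising compound concentrations. HBS pH 7.4 running buffer with 1 mM DTT, 10 mM MgCl2, 10 µM GDP, 4% DMSO. KD from 1:1 binding fit.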
In general terms: Surface plasmon resonance follows binding to a sensor surface in real time, without labels.

In assay [2] the target is GDP-bound NRAS wild-type protein (Homo sapiens, UniProt P01111). As to the kind of experiment: Binding to NRAS by surface plasmon resonance (SPR), KD and KD ratio to KRAS. As to conditions: ratio of KD with respect to GDP-bound NRAS wild-type protein to KD with respect to KRAS. In a few lines:
(§1)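 Recombinant RAS proteins bearing a biotinylated Avi tag and loaded with GDP served as the captured ligand, recaptured fresh every cycle. Binding responses were referenced to an uncoated surface and a buffer-only blank cycle. Dissociation constants were obtained by 1:1 model fitting at 30°C.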

Assay [3] has as its system human lung cancer strain NCI-H441. Kind of assay: NCI-H441 cell proliferation inhibitory activity (CellTiter-Glo, 4 days). In kind it is cell-based. The conditions noted are these: 50% proliferation inhibitory concentration, four days, read-out: NCl-H441 IC50. The essentials:
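Signal came from […] measured per well once the reagent was added. Beforehand, cells were cultured at 37°C and 5% carbon dioxide on a compound series serially diluted in dimethyl sulfoxide.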
For orientation: Cellular ATP, detected with luciferase, serves as a proxy for viable cell number.

For assay [4], the target named is HRAS wild-type protein (Homo sapiens, UniProt P01112). As to the kind of experiment: Binding to HRAS by surface plasmon resonance (SPR), KD and KD ratio to KRAS. The conditions noted are these: ratio of KD with respect to HRAS wild-type protein to KD with respect to KRAS. The essentials: as §1
HRAS wild-type protein, sequence (P01112 whole entry): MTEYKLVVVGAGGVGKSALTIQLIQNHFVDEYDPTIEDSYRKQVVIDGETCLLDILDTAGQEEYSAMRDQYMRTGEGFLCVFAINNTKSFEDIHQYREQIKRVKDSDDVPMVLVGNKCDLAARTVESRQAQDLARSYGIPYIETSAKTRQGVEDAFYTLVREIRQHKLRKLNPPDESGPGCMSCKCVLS

GDP-bound KRAS wild-type protein, sequence (P01116 1-188 isoform P01116-2): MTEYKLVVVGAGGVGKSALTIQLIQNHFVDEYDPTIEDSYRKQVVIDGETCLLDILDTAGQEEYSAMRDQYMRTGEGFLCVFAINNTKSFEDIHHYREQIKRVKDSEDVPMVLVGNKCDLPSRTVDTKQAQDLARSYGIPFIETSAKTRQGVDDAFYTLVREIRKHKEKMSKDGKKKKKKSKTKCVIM
GDP-bound NRAS wild-type protein, sequence (P01111 whole entry): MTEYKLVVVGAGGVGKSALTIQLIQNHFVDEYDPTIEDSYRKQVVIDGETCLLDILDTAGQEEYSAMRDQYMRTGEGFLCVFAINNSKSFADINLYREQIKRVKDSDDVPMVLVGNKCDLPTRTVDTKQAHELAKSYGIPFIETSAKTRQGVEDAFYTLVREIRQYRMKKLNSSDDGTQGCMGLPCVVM

As for `CCO[C@@H]1C[C@H]2C(=O)NC3(CCC3)C(=O)N(C)[C@@H](C3CCCC3)C(=O)N(C)[C@H](C(=O)N3CCOCC3)CC(=O)N(C)[C@@H](CC(C)C)C(=O)N[C@@H]([C@@H](C)CC)C(=O)N(C)CC(=O)N(C)[C@H]3C/C=C\CCN(C3=O)[C@@H](Cc3ccc(C(F)(F)F)cc3)C(=O)N(C)CC(=O)N[C@@H](CCc3cc(F)c(C(F)(F)F)c(F)c3)C(=O)N2C1` [PP1282], the dissociation constant Kd (usually the equilibrium constant for the complex coming apart) in assay [1] came to 0.2 nM. In assay [2], the “NRAS /KRAS” value was “A (a compound having 10 or more and less than 20 is denoted as A)”. In addition, the IC50 (usually the midpoint of a concentration-inhibition curve) in assay [3] turned out to be 12.3 nM. For the same molecule, the “HRAS /KRAS” value in assay [4] is “A (a compound having 10 or more and less than 20 is denoted as A)”.

Take `CCO[C@@H]1C[C@H]2C(=O)NC3(CCC3)C(=O)N(C)[C@@H](C3CCCC3)C(=O)N(C)[C@H](C(=O)N3CCOCC3)CC(=O)N(C)[C@@H](CC(F)F)C(=O)N[C@@H]([C@@H](C)CC)C(=O)N(C)CC(=O)N(C)[C@H]3C/C=C\CCN(C3=O)[C@@H](Cc3ccc(C(F)(F)F)cc3)C(=O)N(C)CC(=O)N[C@@H](CCc3cc(F)c(C(F)(F)F)c(F)c3)C(=O)N2C1` [PP1285]: in assay [1], binding was put at a Kd of 0.15 nM. In assay [2], the “NRAS /KRAS” value is “AA (a compound having 20 or more is denoted as AA)”. Further, the IC50 in assay [3] is 24.6 nM. Moreover, the “HRAS /KRAS” value in assay [4] is “A (a compound having 10 or more and less than 20 is denoted as A)”.

With `CCO[C@@H]1C[C@H]2C(=O)NC3(CCC3)C(=O)N(C)[C@@H](C(CC)CC)C(=O)N(C)[C@H](C(=O)N3CCOCC3)CC(=O)N(C)[C@@H](CC)C(=O)N[C@@H]([C@@H](C)CC)C(=O)N(C)CC(=O)N(C)[C@H]3C/C=C\CCN(C3=O)[C@@H](Cc3ccc(C(F)(F)F)cc3)C(=O)N(C)CC(=O)N[C@@H](CCc3cc(F)c(C(F)(F)F)c(F)c3)C(=O)N2C1` [PP1286], binding in assay [1] was put at a Kd of 0.65 nM. Further, the “NRAS /KRAS” value in assay [2] is reported as “AA (a compound having 20 or more is denoted as AA)”. For the same molecule, the IC50 in assay [3] is 58.8 nM. The “HRAS /KRAS” value in assay [4] was “A (a compound having 10 or more and less than 20 is denoted as A)”.

In turn, `CCO[C@@H]1C[C@H]2C(=O)NC3(CCC3)C(=O)N(C)[C@@H](C(CC)CC)C(=O)N(C)[C@H](C(=O)N3CCOCC3)CC(=O)N(C)[C@@H](CC(C)C)C(=O)N[C@@H]([C@@H](C)CC)C(=O)N(C)CC(=O)N(C)[C@H]3C/C=C\CCN(C3=O)[C@@H](Cc3ccc(C(F)(F)F)cc3)C(=O)N(C)CC(=O)N[C@@H](CCc3cc(F)c(C(F)(F)F)c(F)c3)C(=O)N2C1` [PP1287] registered a Kd in assay [1] of 0.56 nM. The “NRAS /KRAS” value in assay [2] is recorded as “AA (a compound having 20 or more is denoted as AA)”. For the same molecule, in assay [3], the IC50 is 49.7 nM. Also, the “HRAS /KRAS” value in assay [4] is “A (a compound having 10 or more and less than 20 is denoted as A)”.

As for `CCO[C@@H]1C[C@H]2C(=O)NC3(CCC3)C(=O)N(C)[C@@H](C3CCCC3)C(=O)N(C)[C@H](C(=O)N3CCCCC3)CC(=O)N(C)[C@@H](CC)C(=O)N[C@@H]([C@@H](C)CC)C(=O)N(C)CC(=O)N(C)[C@H]3C/C=C\CCN(C3=O)[C@@H](Cc3ccc(C(F)(F)F)cc3)C(=O)N(C)CC(=O)N[C@@H](CCc3cc(F)c(C(F)(F)F)c(F)c3)C(=O)N2C1` [PP1289], in assay [1], the affinity, expressed as Kd, was 0.17 nM. Further, the “NRAS /KRAS” value in assay [2] is listed as “AA (a compound having 20 or more is denoted as AA)”. The IC50 in assay [3] was 34.7 nM. Besides, in assay [4], the “HRAS /KRAS” value is “A (a compound having 10 or more and less than 20 is denoted as A)”.

With `CCO[C@@H]1C[C@H]2C(=O)NC3(CCC3)C(=O)N(C)[C@@H](C3CCCC3)C(=O)N(C)[C@H](C(=O)N3CCCCC3)CC(=O)N(C)[C@@H](CC(C)C)C(=O)N[C@@H]([C@@H](C)CC)C(=O)N(C)CC(=O)N(C)[C@H]3C/C=C\CCN(C3=O)[C@@H](Cc3ccc(C(F)(F)F)cc3)C(=O)N(C)CC(=O)N[C@@H](CCc3cc(F)c(C(F)(F)F)c(F)c3)C(=O)N2C1` [PP1290], the affinity in assay [1], expressed as Kd, was 0.24 nM. For the same molecule, the “NRAS /KRAS” value in assay [2] is on record as “AA (a compound having 20 or more is denoted as AA)”. For the same molecule, in assay [3], the IC50 is 15.4 nM. Moreover, in assay [4], the “HRAS /KRAS” value was “A (a compound having 10 or more and less than 20 is denoted as A)”.

`CCO[C@@H]1C[C@H]2C(=O)NC3(CCC3)C(=O)N(C)[C@@H](C3CCCC3)C(=O)N(C)[C@H](C(=O)N3CCCCC3)CC(=O)N(C)[C@@H](CC3CC3)C(=O)N[C@@H]([C@@H](C)CC)C(=O)N(C)CC(=O)N(C)[C@H]3C/C=C\CCN(C3=O)[C@@H](Cc3ccc(C(F)(F)F)cc3)C(=O)N(C)CC(=O)N[C@@H](CCc3cc(F)c(C(F)(F)F)c(F)c3)C(=O)N2C1` [PP1291] returned an equilibrium dissociation constant (Kd) in assay [1] of 0.24 nM. Besides, in assay [2], the “NRAS /KRAS” value is “A (a compound having 10 or more and less than 20 is denoted as A)”. Moreover, the IC50 in assay [3] is 16.7 nM. Moreover, the “HRAS /KRAS” value in assay [4] was “A (a compound having 10 or more and less than 20 is denoted as A)”.

In assay [1], `CCO[C@@H]1C[C@H]2C(=O)NC3(CCC3)C(=O)N(C)[C@@H](C3CCCC3)C(=O)N(C)[C@H](C(=O)N3CCCC3)CC(=O)N(C)[C@@H](CC(C)C)C(=O)N[C@@H]([C@@H](C)CC)C(=O)N(C)CC(=O)N(C)[C@H]3C/C=C\CCN(C3=O)[C@@H](Cc3ccc(C(F)(F)F)cc3)C(=O)N(C)CC(=O)N[C@@H](CCc3cc(F)c(C(F)(F)F)c(F)c3)C(=O)N2C1` [PP1295] returned a Kd of 0.12 nM. The “NRAS /KRAS” value in assay [2] is “AA (a compound having 20 or more is denoted as AA)”. Besides, the IC50 in assay [3] is 6.2 nM. For the same molecule, in assay [4], the “HRAS /KRAS” value is “A (a compound having 10 or more and less than 20 is denoted as A)”.

Take `CCO[C@@H]1C[C@H]2C(=O)NC3(CCC3)C(=O)N(C)[C@@H](C3CCCC3)C(=O)N(C)[C@H](C(=O)N3CCCC3)CC(=O)N(C)[C@@H](CC3CC3)C(=O)N[C@@H]([C@@H](C)CC)C(=O)N(C)CC(=O)N(C)[C@H]3C/C=C\CCN(C3=O)[C@@H](Cc3ccc(C(F)(F)F)cc3)C(=O)N(C)CC(=O)N[C@@H](CCc3cc(F)c(C(F)(F)F)c(F)c3)C(=O)N2C1` [PP1296]: the Kd in assay [1] came out at 0.12 nM. Moreover, in assay [2], the “NRAS /KRAS” value is given as “AA (a compound having 20 or more is denoted as AA)”. Also, the 50% inhibitory concentration (IC50) in assay [3] is 14.7 nM. In addition, the “HRAS /KRAS” value in assay [4] was “A (a compound having 10 or more and less than 20 is denoted as A)”.

In turn, `CCO[C@@H]1C[C@H]2C(=O)NC3(CCC3)C(=O)N(C)[C@@H](C3CCCC3)C(=O)N(C)[C@H](C(=O)N3CCCC3)CC(=O)N(C)[C@@H](CC(F)F)C(=O)N[C@@H]([C@@H](C)CC)C(=O)N(C)CC(=O)N(C)[C@H]3C/C=C\CCN(C3=O)[C@@H](Cc3ccc(C(F)(F)F)cc3)C(=O)N(C)CC(=O)N[C@@H](CCc3cc(F)c(C(F)(F)F)c(F)c3)C(=O)N2C1` [PP1298] came in with a Kd in assay [1] of 0.13 nM. Further, the “NRAS /KRAS” value in assay [2] is recorded as “AA (a compound having 20 or more is denoted as AA)”. The IC50 in assay [3] was 11.4 nM. In addition, the “HRAS /KRAS” value in assay [4] is “A (a compound having 10 or more and less than 20 is denoted as A)”.

`C#CC[C@H]1C(=O)N[C@@H]([C@@H](C)CC)C(=O)N(C)CC(=O)N(C)[C@H]2CC[C@@H](C)CN(C2=O)[C@@H](Cc2ccc(C(F)(F)F)cc2)C(=O)N(C)CC(=O)N[C@@H](CCc2ccc(C(F)(F)F)c(Cl)c2)C(=O)N2CCC[C@H]2C(=O)NC2(CCCC2)C(=O)N(C)[C@@H](C2CCCC2)C(=O)N(C)[C@H](C(=O)N(C)C)CC(=O)N1C` [PP1340] registered an equilibrium dissociation constant (Kd) in assay [1] of 0.081 nM. The “NRAS /KRAS” value in assay [2] was “B (a compound having 3 or more and less than 10 is denoted as B)”. The IC50 in assay [3] was 10.9 nM. Besides, the “HRAS /KRAS” value in assay [4] was “B (a compound having 3 or more and less than 10 is denoted as B)”.
